Molecules are shown by their SMILES. pEC50: −log10 of the molar value. Entries after “also recorded” stand apart in the source; their conditions may differ.

Data set [1] concerns mice after I/R injury. The data set is described as follows: Ischemia/Reperfusion followed by oral probenecid (echocardiography). It is filed as in vivo, mouse. The procedure:
(§1) Ischemia/Reperfusion methods—Mice were anesthetized with sodium pentobarbital and the heart exposed through a left thoracotomy at the level of the fourth intercostal space. The mice were intubated and placed on a mini-ventilator (Harvard apparatus, Holliston, Mass.). A loop occluder was placed around the left anterior descending artery (LAD), and tightened, occluding it for either 30 minutes or 45 minutes. After surgery, the thorocotomy was sutured in layers, and the animal was allowed to recover. Echocardiography methods—All echocardiographic studies were performed as previously described for Example 1.

In data set [2] the test system is TRPV2. Particulars: HEK293 cells, identified 2007; cited from earlier work.
The test system of data set [3] is HL-1 cells. Nature of the data set: Imaging and measurement of Ca2+ fluorescence in HL-1 cells. The format is cell-based. The protocol:
Imaging and measurement of Ca2+ fluorescence.—HL-1 cells were obtained as described above. Dissociated cells were plated on glass cover-slip (GG-25-polylysine #1, Neuvitro, Calif.) placed inside each well of six-well plates (BD Falcon). Acquisition of images were done at 40-65 Hz by using LSM 510 Meta system equipped with the inverted Axiovert 200 M BP (Carl Zeiss Microscopy, LLC, Thornwood, N.Y.) and LSMS Software. Image acquisition was done with Plan-Apochromat 40×/water with frame size of 512 (X) and 256(Y). To optimize the speed of acquisition, the acquisition area was limited to a few cells. […] Peak fluorescence before perfusion (F0) and that after perfusion (F) were determined manually after acquisition of images from the saved LSM files. Circular areas within the cytosol of each cell of the saved images over the entire duration of respective experiments were used to determine changes in fluorescence before and after perfusion. Normalized fluorescence, determined as a quotient of F/F0, was used as a variable to compare the relative changes in fluorescence at different incremental concentrations during statistical analyses. […]

In data set [4] the test system is isolated ventricular myocytes. Nature of the data set: Whole-cell patch clamp Ca2+ current recording. Particulars: myocytes held at −70 mV, 0.1 μM. It is filed as cell-based, mouse. The procedure: Electrophysiological recordings—Isolated myocytes were perfused with a Na^+- and K^+-free solution containing (mM): tetraethylammonium chloride (TEA-Cl) 137, CsCl 5.4, CaCl2 2, MgCl2 1, HEPES 5, glucose 10 and 4-aminopyridine 3 (pH=7.4). Whole-cell patch clamp recordings were performed with an Axopatch-1B amplifier. For Ca^2+ current recordings, glass pipettes were filled with solution containing (mM): aspartic acid 115, CsOH 115, CsCl 20, EGTA 11, HEPES 10, MgCl2 2.5, Na-GTP 0.1, Mg-ATP 2 (pH adjusted to 7.2 with CsOH). Probenecid was dissolved in a Na^+- and K^+-free solution which was used to perfuse the myocytes. Data were collected using pCLAMP9 software through an Axon Digidata 1322A data acquisition system. All experiments were performed at room temperature (24° C.).

The test system of data set [5] is mice after I/R injury. The data set is described as follows: Ischemia/Reperfusion followed by probenecid bolus (echocardiography). The format is in vivo, mouse. The protocol: as §1, with “1. […] The mice were imaged at 5 minute intervals for a total of 30 minutes.” for “1.”
The test system of data set [6] is HL-1 cells. It is filed as cell-based. The procedure: Cell Viability Assays—Cell viability was assessed using the ApoTox-Glo Triplex Assay (Promega, Madison, Wis.) per manufacturer's instructions. Briefly, HL-1 cells were seeded in 96 well plates at a density of 1×10^4 cells/well and allowed to grow overnight in Claycomb media supplemented with 10% FBS, 100 U/ml penicillin/streptomycin, and 2 mM L-glutamine. […] GF-AFC viability was then added to ApoTox-Glo Assay Buffer at a ratio of 10 μl GF-AFC to 2.0 ml Assay Buffer and 20 μl of this mixture was added to each well and cells were incubated at 37° C. for 30 minutes. Fluorescence was measured at 400 nm (ex)/505 nm (em) and the data was normalized to untreated control cells.

In data set [7] the test system is isolated ventricular myocytes. Nature of the data set: Myocyte contractility measurement. The format is cell-based, mouse. The protocol: Isolation of ventricular myocytes—Hearts from WT mice (12-week old) were perfused on the Langendorff system with a modified Krebs-Henseleit buffer (KHB) composed of (mM) NaCl 118, KCl 5.4, HEPES 10, NaH2PO4 0.33, MgCl2 2, glucose 10, taurine 30, butanedione monoxime 10 (pH=7.4). Then an enzyme solution (KHB containing 0.7 mg/ml type II collagenase, 0.1% BSA and 25 μM CaCl2) was used to digest the hearts for 10 min. Finally, ventricles of the hearts were excised, minced and filtered to obtain isolated cells. After sufficient sedimentation, the supernatant was removed and the cells were resuspended. Myocyte contractility measurement—Myocytes were put on a plexiglass chamber containing a Tyrode's solution composed of (mM) NaCl 140, KCl, 5.4, MgCl2 1, CaCl2 1.8, HEPES 5, glucose 10 (pH=7.4). Myocytes were excited under 0.5 Hz field stimulation. After reaching the steady state, myocyte shortening and the rates of shortening (+dL/dt) and relengthening (−dL/dt) were imaged with a CCD camera and monitored by a video-edge detector. Drugs were dissolved in Tyrode's solution and perfused into the chamber. Data were continuously collected through the PCLAMP 9 software. Water soluble probenecid was used for all of the myocyte experiments.

Compound `CCCN(CCC)S(=O)(=O)c1ccc(C(=O)O)cc1` [probenecid] showed a radial displacement in data set [1] (oral in water after 45 min I/R, water 0.018±0.018, p<0.05) of 0.071±0.013. Besides, the “LV cavity size (LV Vol;d) increase” value in data set [1] (oral in water after 45 min I/R, water 22.55±4.47, p=0.076) is 7.59±6.08. Besides, the “change in EF” value in data set [1] (oral in water after I/R (FIG. 11D legend)) was “slight (but not statistically significant) increase in the change in EF”. In data set [2], the “cytosolic Ca2+ in TRPV2-expressing cells” value was “significant increase”. Further, the “median peak cytosolic fluorescence after vs before perfusion” value in data set [3] (higher probenecid concentrations (up to 10^−4)) is listed as “significantly higher”. Further, the “median peak cytosolic fluorescence before vs after perfusion” value in data set [3] (probenecid 10^−8) is recorded as “No significant differences”. Besides, the “inward Ca2+ current” value in data set [4] is on record as “No measurable inward Ca^2+ current was detected”. In data set [5] (100 mg/kg IP bolus, all treated mice), the “EF after I/R injury” value is “statistically significant increase in EF”. In addition, the “change in EF at peak effect” value in data set [5] (100 mg/kg IP, 10 minutes, mice with initial EF 50-60%) is 19.72±4.10%. Moreover, the “time of peak effect on EF” value in data set [5] (100 mg/kg IP, mice with initial EF 50-60%) was 10 min. Also, the contractility over time result in data set [5] (100 mg/kg IP, mice with lower initial EFs (40-50%)) is recorded as “continued to enhance contractility throughout the full 30-minute experiment”. In data set [6] (increasing doses, 4, 8 or 24 hours following treatment), the “cytotoxicity / cell death” value is given as “does not result in any detectable cytotoxicity; also recorded: no significant cell death”. Further, the “cell death in HL-1 cells (Example 3 summary)” value in data set [6] (probenecid at supraphysiological, isoproterenol at clinically relevant concentrations) was “no cell death”. The “increase of myocyte fractional shortening (FS)” value in data set [7] (0.1 μM, 0.5 Hz, room temp, n=6) is reported as 30.8±1.4%. For the same compound, the “myocyte fractional shortening (FS)” value in data set [7] (0.1 μM, 0.5 Hz, room temp, from 6.9% control) was found to be 9.0%; in data set [7] (3 Hz and 32° C., n=4, from 10.1% control) it was 13.9%. For the same compound, in data set [7] (Mus musculus, Ventricular myocyte, isolated ventricular myocytes, averages from 4 mice, read-out: EC50 of dose-response curve on myocyte contractility), the pEC50 is 8.80. Moreover, the “maximum +dL/dt (rate of shortening)” value in data set [7] (room temperature, n=10, from 80.6±12.3) was determined as 112.5±16.6 μm/sec. For the same compound, the “−dL/dt (rate of relengthening)” value in data set [7] (room temperature, from 57.7±7.4) stood at 77.6±8.7 μm/sec.

(Values after patent US10806711B2 (priority 2011, dated 2020).)
